Assays:
Test in all cases: pIC50, kinobeads binding competition
ACVR2B = ACVR2B (UniProt Q13705)
Procedure, shortened: (§1)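 pIC50 was obtained by fitting fold changes against vehicle to logistic dose-response curves with the R drc package, using biological duplicates. Kinobeads-bound proteins were digested and measured by TMT10 LC-MS/MS. Before this, either living Jurkat cells received nine compound concentrations (top 30 μM, 1:4 steps) for 60 min at 37 °C prior to lysis, or Jurkat lysate or a 1:1:1:1 HEK293/K-562/HepG2/placenta lysate mix received nine concentrations (top 30 μM, 1:5 steps) for 60 min at 4 °C.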

IGF1R = IGF1R (UniProt P08069)
Procedure, shortened: as §1

LRRK2 = LRRK2 (UniProt Q5S007); conditions: cell material: Lysate mix
Procedure, shortened: as §1

MAP4K5 = MAP4K5 (UniProt Q9Y4K4)
Procedure, shortened: as §1

PRKD3 = biological target: T1, PRKD3 (UniProt O94806)
T1 sequence (whole entry): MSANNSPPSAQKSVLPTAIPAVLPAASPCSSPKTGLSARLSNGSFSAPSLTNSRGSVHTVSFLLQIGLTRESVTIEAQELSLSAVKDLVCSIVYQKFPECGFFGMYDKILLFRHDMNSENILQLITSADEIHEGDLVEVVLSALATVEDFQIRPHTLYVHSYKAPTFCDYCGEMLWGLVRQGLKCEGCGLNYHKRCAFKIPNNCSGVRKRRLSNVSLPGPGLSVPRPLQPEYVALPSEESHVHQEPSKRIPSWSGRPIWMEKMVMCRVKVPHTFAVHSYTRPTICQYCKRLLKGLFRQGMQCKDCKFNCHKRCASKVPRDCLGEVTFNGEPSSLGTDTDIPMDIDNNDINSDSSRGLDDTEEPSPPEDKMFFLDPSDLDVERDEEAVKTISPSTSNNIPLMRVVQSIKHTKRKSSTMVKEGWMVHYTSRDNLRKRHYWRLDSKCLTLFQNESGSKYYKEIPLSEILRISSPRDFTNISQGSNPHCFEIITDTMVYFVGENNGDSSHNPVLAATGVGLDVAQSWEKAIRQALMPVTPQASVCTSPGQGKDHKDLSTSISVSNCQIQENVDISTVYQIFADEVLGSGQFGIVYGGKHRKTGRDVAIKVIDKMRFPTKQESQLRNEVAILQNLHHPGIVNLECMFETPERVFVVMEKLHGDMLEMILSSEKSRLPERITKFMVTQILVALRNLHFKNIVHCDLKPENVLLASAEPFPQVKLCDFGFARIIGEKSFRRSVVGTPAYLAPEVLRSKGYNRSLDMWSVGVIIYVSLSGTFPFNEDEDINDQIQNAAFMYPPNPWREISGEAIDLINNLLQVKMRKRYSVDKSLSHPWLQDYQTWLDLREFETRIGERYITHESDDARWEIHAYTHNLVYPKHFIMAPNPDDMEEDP
Procedure, shortened: as §1

SYK = SYK (UniProt P43405)
Procedure, shortened: as §1

TAOK3 = TAOK3 (UniProt Q9H2K8)
Procedure, shortened: as §1

UniProt O60285 = biological target: T2, UniProt O60285; conditions: cell material: Lysate mix
T2 sequence (whole entry): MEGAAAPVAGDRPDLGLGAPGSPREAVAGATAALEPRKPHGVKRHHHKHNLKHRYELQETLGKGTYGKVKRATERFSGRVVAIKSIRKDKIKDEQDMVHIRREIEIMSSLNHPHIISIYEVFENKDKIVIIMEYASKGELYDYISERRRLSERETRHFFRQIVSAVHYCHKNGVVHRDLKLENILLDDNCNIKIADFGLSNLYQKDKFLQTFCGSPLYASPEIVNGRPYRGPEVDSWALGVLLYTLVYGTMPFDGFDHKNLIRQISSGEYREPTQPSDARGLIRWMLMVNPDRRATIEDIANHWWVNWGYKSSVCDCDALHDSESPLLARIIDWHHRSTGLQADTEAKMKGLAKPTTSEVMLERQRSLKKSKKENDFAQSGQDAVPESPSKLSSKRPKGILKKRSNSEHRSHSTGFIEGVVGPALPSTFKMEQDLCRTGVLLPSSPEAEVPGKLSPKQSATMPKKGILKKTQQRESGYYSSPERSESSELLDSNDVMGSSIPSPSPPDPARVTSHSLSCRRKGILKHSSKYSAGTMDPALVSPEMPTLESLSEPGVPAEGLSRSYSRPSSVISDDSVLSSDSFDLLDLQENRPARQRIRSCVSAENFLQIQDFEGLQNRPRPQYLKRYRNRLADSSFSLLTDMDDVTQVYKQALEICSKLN
Procedure, shortened: as §1

UniProt O75716 = biological target: UniProt O75716
Procedure, shortened: as §1

UniProt Q9BUB5 = biological target: UniProt Q9BUB5
Procedure, shortened: as §1

UniProt Q9HBH9 = biological target: UniProt Q9HBH9
Procedure, shortened: as §1

UniProt Q9NYL2 = biological target: UniProt Q9NYL2
Procedure, shortened: as §1

UniProt Q9Y2U5 = biological target: T3, UniProt Q9Y2U5
T3 sequence (whole entry): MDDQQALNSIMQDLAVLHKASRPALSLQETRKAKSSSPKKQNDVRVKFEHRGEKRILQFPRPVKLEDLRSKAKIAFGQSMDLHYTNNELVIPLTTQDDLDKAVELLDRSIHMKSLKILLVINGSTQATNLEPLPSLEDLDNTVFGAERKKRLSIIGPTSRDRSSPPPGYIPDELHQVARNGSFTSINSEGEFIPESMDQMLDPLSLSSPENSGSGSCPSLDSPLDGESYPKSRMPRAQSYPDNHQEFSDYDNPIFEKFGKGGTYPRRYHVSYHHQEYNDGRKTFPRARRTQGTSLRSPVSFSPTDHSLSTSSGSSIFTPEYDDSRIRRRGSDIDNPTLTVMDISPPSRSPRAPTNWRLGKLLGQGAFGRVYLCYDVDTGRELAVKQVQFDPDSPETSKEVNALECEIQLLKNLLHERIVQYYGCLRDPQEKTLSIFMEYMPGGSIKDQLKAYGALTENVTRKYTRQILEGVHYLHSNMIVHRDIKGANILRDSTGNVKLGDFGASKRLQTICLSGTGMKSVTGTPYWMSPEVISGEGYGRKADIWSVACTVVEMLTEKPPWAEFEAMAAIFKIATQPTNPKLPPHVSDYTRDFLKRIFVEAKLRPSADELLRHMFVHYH
Procedure, shortened: as §1

UniProt Q9BUB5, sequence (Q9BUB5 whole entry, looked up): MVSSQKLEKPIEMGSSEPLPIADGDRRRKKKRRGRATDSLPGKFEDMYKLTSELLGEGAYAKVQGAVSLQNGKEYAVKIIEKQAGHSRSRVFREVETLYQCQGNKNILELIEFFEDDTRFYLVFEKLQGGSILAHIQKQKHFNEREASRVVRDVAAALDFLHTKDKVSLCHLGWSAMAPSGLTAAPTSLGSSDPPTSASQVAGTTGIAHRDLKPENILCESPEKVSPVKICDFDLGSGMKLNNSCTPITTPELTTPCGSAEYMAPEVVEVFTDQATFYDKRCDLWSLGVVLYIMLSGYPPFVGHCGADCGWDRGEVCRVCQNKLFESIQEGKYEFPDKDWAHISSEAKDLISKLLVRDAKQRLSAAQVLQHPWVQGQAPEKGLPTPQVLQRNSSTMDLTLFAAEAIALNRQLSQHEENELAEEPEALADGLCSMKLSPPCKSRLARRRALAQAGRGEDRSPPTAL
MAP4K5, sequence (Q9Y4K4 whole entry, looked up): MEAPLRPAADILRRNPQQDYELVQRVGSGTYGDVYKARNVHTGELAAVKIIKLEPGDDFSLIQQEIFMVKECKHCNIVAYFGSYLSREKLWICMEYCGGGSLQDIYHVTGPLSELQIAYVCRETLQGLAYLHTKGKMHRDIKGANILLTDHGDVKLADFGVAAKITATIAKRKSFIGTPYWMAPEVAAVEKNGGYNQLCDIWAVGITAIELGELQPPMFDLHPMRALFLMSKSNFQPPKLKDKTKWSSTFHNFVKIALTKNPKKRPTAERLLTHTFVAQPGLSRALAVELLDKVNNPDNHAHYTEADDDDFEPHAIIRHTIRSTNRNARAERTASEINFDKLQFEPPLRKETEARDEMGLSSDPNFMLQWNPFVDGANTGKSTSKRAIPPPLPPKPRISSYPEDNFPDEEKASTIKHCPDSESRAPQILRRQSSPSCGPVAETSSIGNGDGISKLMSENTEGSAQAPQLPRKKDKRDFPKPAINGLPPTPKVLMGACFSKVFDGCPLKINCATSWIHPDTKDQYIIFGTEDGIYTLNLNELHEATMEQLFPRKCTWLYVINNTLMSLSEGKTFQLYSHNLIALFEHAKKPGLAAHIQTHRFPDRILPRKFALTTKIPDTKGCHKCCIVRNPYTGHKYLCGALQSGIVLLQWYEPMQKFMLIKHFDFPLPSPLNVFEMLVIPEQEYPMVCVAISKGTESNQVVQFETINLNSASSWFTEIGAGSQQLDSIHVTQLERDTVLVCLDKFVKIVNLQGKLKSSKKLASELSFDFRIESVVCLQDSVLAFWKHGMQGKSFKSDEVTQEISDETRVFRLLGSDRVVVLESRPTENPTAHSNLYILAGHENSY
UniProt Q9NYL2, sequence (Q9NYL2 whole entry, looked up): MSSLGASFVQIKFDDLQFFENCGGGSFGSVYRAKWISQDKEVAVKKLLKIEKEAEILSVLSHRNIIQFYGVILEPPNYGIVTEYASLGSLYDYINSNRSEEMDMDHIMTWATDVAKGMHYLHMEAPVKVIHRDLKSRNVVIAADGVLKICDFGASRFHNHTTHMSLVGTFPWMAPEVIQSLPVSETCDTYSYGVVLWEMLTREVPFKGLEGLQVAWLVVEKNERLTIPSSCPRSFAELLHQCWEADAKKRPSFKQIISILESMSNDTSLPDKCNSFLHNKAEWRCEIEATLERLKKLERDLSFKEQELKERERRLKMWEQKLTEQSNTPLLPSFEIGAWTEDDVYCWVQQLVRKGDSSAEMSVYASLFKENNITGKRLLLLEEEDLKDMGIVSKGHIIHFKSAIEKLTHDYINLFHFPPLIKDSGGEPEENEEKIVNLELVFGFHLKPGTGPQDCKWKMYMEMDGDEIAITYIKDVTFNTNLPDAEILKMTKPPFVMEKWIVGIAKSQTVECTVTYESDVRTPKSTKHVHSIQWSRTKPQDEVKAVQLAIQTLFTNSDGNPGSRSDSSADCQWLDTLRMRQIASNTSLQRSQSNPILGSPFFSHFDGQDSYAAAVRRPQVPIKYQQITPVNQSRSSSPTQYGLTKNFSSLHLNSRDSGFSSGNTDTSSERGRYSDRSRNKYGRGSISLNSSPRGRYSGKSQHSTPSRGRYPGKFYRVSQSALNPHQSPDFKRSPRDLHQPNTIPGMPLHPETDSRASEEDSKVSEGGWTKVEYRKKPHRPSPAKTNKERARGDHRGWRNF
UniProt O75716, sequence (O75716 whole entry): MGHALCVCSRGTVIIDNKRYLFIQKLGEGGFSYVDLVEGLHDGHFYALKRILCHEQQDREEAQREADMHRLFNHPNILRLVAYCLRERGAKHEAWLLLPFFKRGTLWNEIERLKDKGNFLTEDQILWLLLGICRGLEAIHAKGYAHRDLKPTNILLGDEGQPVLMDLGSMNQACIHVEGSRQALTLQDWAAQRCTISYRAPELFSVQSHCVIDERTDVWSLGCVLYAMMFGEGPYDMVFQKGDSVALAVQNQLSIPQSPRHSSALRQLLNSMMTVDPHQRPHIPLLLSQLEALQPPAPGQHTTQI
TAOK3, sequence (Q9H2K8 whole entry, looked up): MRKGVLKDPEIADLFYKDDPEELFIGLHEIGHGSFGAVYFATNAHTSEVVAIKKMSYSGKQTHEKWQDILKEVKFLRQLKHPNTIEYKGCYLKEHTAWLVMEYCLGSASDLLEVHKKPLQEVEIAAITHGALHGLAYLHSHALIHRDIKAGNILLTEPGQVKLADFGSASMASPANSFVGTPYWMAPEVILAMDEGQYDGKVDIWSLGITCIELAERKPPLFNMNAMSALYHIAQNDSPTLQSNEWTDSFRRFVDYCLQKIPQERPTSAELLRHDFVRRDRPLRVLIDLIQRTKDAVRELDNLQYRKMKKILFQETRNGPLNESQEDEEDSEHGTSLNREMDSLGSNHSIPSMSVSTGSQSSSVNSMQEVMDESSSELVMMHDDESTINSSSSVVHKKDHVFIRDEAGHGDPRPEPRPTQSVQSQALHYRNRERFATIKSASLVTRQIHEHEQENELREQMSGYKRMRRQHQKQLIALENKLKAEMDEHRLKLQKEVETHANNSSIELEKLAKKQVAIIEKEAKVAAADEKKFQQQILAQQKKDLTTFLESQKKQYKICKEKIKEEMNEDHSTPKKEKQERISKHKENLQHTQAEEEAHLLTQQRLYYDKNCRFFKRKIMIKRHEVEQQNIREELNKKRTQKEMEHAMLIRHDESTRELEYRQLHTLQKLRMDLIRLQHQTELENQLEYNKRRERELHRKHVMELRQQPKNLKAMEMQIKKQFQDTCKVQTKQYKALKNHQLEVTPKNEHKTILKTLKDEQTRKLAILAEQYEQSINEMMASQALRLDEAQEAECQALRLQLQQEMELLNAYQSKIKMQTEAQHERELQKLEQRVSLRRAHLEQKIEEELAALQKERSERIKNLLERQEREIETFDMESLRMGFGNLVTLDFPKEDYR
UniProt Q9HBH9, sequence (Q9HBH9 whole entry, looked up): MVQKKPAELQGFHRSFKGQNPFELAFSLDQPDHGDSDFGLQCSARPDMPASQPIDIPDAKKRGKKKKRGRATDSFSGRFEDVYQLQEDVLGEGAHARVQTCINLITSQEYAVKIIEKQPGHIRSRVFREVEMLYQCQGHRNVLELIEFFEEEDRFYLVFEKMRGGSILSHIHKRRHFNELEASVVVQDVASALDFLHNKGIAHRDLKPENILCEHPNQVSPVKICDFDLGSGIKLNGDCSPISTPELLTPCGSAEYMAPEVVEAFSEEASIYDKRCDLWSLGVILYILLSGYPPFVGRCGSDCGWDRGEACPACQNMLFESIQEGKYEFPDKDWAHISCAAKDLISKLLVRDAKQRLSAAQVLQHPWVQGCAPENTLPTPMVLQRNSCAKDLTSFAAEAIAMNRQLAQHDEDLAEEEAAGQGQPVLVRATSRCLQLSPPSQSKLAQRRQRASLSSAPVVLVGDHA
ACVR2B, sequence (Q13705 whole entry): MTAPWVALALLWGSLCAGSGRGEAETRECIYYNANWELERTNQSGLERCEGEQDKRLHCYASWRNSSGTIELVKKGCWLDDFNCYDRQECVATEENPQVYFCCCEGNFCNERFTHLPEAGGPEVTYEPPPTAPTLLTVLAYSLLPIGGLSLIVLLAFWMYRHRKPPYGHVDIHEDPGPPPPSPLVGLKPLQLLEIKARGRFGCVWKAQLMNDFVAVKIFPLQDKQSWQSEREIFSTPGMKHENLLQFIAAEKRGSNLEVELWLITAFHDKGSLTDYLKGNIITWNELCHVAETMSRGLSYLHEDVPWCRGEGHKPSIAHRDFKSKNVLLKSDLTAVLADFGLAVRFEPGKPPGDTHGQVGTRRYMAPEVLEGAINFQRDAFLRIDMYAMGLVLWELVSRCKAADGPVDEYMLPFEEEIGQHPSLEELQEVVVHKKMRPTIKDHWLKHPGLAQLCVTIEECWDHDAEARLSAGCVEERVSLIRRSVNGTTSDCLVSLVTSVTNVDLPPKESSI

Row | pIC50 (ACVR2B; cell material: Lysate mix) | pIC50 (IGF1R; cell material: Lysate mix) | pIC50 (LRRK2) | pIC50 (MAP4K5; cell material: Lysate mix) | pIC50 (PRKD3; cell material: Lysate mix) | pIC50 (SYK; cell material: Lysate mix) | pIC50 (TAOK3; cell material: Lysate mix) | pIC50 (UniProt O60285) | pIC50 (UniProt O75716; cell material: Lysate mix) | pIC50 (UniProt Q9BUB5; cell material: Lysate mix) | pIC50 (UniProt Q9HBH9; cell material: Lysate mix) | pIC50 (UniProt Q9NYL2; cell material: Lysate mix) | pIC50 (UniProt Q9Y2U5; cell material: Lysate mix) | pIC50 (ACVR2B; cell material: Jurkat cells) | pIC50 (IGF1R; cell material: Jurkat cells) | pIC50 (SYK; cell material: Jurkat cells) | pIC50 (UniProt Q9Y2U5; cell material: Jurkat lysate) | SMILES | pIC50 (ACVR2B; cell material: Jurkat lysate) | pIC50 (IGF1R; cell material: Jurkat lysate) | pIC50 (MAP4K5; cell material: Jurkat cells) | pIC50 (MAP4K5; cell material: Jurkat lysate) | pIC50 (PRKD3; cell material: Jurkat cells) | pIC50 (PRKD3; cell material: Jurkat lysate) | pIC50 (SYK; cell material: Jurkat lysate) | pIC50 (TAOK3; cell material: Jurkat cells) | pIC50 (TAOK3; cell material: Jurkat lysate) | pIC50 (UniProt O75716; cell material: Jurkat cells) | pIC50 (UniProt O75716; cell material: Jurkat lysate) | pIC50 (UniProt Q9BUB5; cell material: Jurkat cells) | pIC50 (UniProt Q9BUB5; cell material: Jurkat lysate) | pIC50 (UniProt Q9HBH9; cell material: Jurkat cells) | pIC50 (UniProt Q9HBH9; cell material: Jurkat lysate) | pIC50 (UniProt Q9NYL2; cell material: Jurkat cells) | pIC50 (UniProt Q9NYL2; cell material: Jurkat lysate) | pIC50 (UniProt Q9Y2U5; cell material: Jurkat cells)
1 | < 4.52 | < 4.52 | 5.27 | 5.53 | < 4.52 | 5.52 | < 4.52 | < 4.52 | 4.89 | < 4.52 | < 4.52 | < 4.52 | 4.82 |  |  |  |  | C#CCNC(=O)c1cc(Nc2cc(C)[nH]n2)nc(N2CCN(Cc3ccc(S(=O)(=O)F)cc3)CC2)n1 |  |  |  |  |  |  |  |  |  |  |  |  |  |  |  |  |  | 
2 | < 4.52 | < 4.52 | 5.46 | 5.77 | < 4.52 | 6.22 | < 4.52 | 4.98 | 5.46 | < 4.52 | < 4.52 | < 4.52 | 5.29 |  |  |  |  | CCNC(=O)c1cc(Nc2cc(C3CC3)[nH]n2)nc(N2CCN(Cc3ccc(S(=O)(=O)F)cc3)CC2)n1 |  |  |  |  |  |  |  |  |  |  |  |  |  |  |  |  |  | 
3 | < 4.52 | < 4.52 | 5.28 | 5.33 | < 4.52 | 5.57 | < 4.52 | < 4.52 | 4.87 | < 4.52 | < 4.52 | < 4.52 | 4.67 |  |  |  |  | CCNC(=O)c1cc(Nc2cc(C)[nH]n2)nc(N2CCN(Cc3ccc(S(=O)(=O)F)cc3)CC2)n1 |  |  |  |  |  |  |  |  |  |  |  |  |  |  |  |  |  | 

Second part, the compound before the results:

Row | SMILES | pIC50 (ACVR2B; cell material: Lysate mix) | pIC50 (IGF1R; cell material: Lysate mix) | pIC50 (LRRK2) | pIC50 (MAP4K5; cell material: Lysate mix) | pIC50 (PRKD3; cell material: Lysate mix) | pIC50 (SYK; cell material: Lysate mix) | pIC50 (TAOK3; cell material: Lysate mix) | pIC50 (UniProt O60285) | pIC50 (UniProt O75716; cell material: Lysate mix) | pIC50 (UniProt Q9BUB5; cell material: Lysate mix) | pIC50 (UniProt Q9HBH9; cell material: Lysate mix) | pIC50 (UniProt Q9NYL2; cell material: Lysate mix) | pIC50 (UniProt Q9Y2U5; cell material: Lysate mix) | pIC50 (ACVR2B; cell material: Jurkat cells) | pIC50 (IGF1R; cell material: Jurkat cells) | pIC50 (SYK; cell material: Jurkat cells) | pIC50 (UniProt Q9Y2U5; cell material: Jurkat lysate) | pIC50 (ACVR2B; cell material: Jurkat lysate) | pIC50 (IGF1R; cell material: Jurkat lysate) | pIC50 (MAP4K5; cell material: Jurkat cells) | pIC50 (MAP4K5; cell material: Jurkat lysate) | pIC50 (PRKD3; cell material: Jurkat cells) | pIC50 (PRKD3; cell material: Jurkat lysate) | pIC50 (SYK; cell material: Jurkat lysate) | pIC50 (TAOK3; cell material: Jurkat cells) | pIC50 (TAOK3; cell material: Jurkat lysate) | pIC50 (UniProt O75716; cell material: Jurkat cells) | pIC50 (UniProt O75716; cell material: Jurkat lysate) | pIC50 (UniProt Q9BUB5; cell material: Jurkat cells) | pIC50 (UniProt Q9BUB5; cell material: Jurkat lysate) | pIC50 (UniProt Q9HBH9; cell material: Jurkat cells) | pIC50 (UniProt Q9HBH9; cell material: Jurkat lysate) | pIC50 (UniProt Q9NYL2; cell material: Jurkat cells) | pIC50 (UniProt Q9NYL2; cell material: Jurkat lysate) | pIC50 (UniProt Q9Y2U5; cell material: Jurkat cells)
4 | C#CCNC(=O)c1cc(Nc2cc(C3CC3)[nH]n2)nc(N2CCN(Cc3ccc(S(=O)(=O)F)cc3)CC2)n1 | < 4.52 | < 4.52 | 5.64 | 6.21 | < 4.52 | 6.28 | < 4.52 | 4.83 | 5.32 | < 4.52 | < 4.52 | < 4.52 | 5.47 |  |  |  |  | < 4.52 | < 4.52 | 6.45 | 5.53 | 5.32 | < 4.52 | 5.64 | 5.56 | < 4.52 | 5.82 | 4.92 | 5.31 | < 4.52 | 5.15 | < 4.52 | 5.56 | < 4.52 | 5.84
5 | O=C(NCCNC(=O)c1cc(Nc2cc(C3CC3)[nH]n2)nc(N2CCN(Cc3ccc(S(=O)(=O)F)cc3)CC2)n1)OC1CC/C=C/CCC1 (stereo not given) | < 4.52 | < 4.52 | < 4.52 | < 4.52 | < 4.52 | < 4.52 | 5.55 | < 4.52 | < 4.52 | < 4.52 | < 4.52 | < 4.52 | < 4.52 | < 4.52 | < 4.52 | 5.38 | < 4.52 | < 4.52 | < 4.52 | 5.8 | < 4.52 |  | < 4.52 | < 4.52 | 6.22 | 5.61 | 4.81 | < 4.52 |  | < 4.52 |  | < 4.52 | < 4.52 | < 4.52 | 5.38
6 | Cc1cc(Nc2cc(C(=O)NCCNC(=O)OC3CC/C=C/CCC3)nc(N3CCN(Cc4ccc(S(=O)(=O)F)cc4)CC3)n2)n[nH]1 (stereo not given) | < 4.52 | < 4.52 | < 4.52 | < 4.52 | < 4.52 | < 4.52 | 6.03 | < 4.52 | < 4.52 | < 4.52 | < 4.52 | < 4.52 | < 4.52 |  |  |  |  |  |  |  |  |  |  |  |  |  |  |  |  |  |  |  |  |  | 
